# Results published in PubChem BioAssay (NCI).
#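 Tested at 5 concentrations; 48 h exposure; 96-well plates; endpoints linearly interpolated, else capped at highest concentration. GI50: concentration for 50% inhibition of growth. TGI is the concentration that stops growth completely.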
# Tests used:
# Test in all cases: growth of human tumour cells (NCI), 48 h
# SR leukemia = system: SR leukemia
# IGROV1 ovarian = system: IGROV1 ovarian
# NCI-H460 lung = system: NCI-H460 lung
# UO-31 renal = system: UO-31 renal
# SW-620 colon = system: SW-620 colon
# UACC-257 melanoma = system: UACC-257 melanoma
# CAKI-1 renal = system: CAKI-1 renal
# SF-539 CNS = system: SF-539 CNS
# U251 CNS = system: U251 CNS
# MOLT-4 leukemia = system: MOLT-4 leukemia
SMILES,TGI (SR leukemia),TGI (IGROV1 ovarian),TGI (NCI-H460 lung),TGI (UO-31 renal),TGI (SW-620 colon),TGI (UACC-257 melanoma),TGI (CAKI-1 renal),TGI (SF-539 CNS),TGI (U251 CNS),TGI (MOLT-4 leukemia),GI50 (SR leukemia),GI50 (IGROV1 ovarian),GI50 (NCI-H460 lung),GI50 (UO-31 renal),GI50 (SW-620 colon),GI50 (UACC-257 melanoma),GI50 (CAKI-1 renal),GI50 (SF-539 CNS),GI50 (U251 CNS),GI50 (MOLT-4 leukemia)
O=C(O)c1ccc(OCc2ccccc2)c(Cl)c1,> 100 µM,> 100 µM,> 100 µM,> 100 µM,> 100 µM,> 100 µM,> 100 µM,> 100 µM,> 100 µM,> 100 µM,–,–,–,–,–,–,–,–,–,–
COc1ccc(-c2ccc(-c3ccc(C(=N)N)s3)s2)cc1,0.566 µM,0.509 µM,0.364 µM,0.355 µM,0.353 µM,1.68 µM,1.19 µM,0.346 µM,0.337 µM,0.849 µM,0.208 µM,0.244 µM,0.192 µM,0.181 µM,0.18 µM,0.746 µM,0.345 µM,0.188 µM,0.179 µM,0.315 µM
Cc1nc2sc3c(c2c(=O)[nH]1)CCCC3,81.1 µM,> 100 µM,86.1 µM,68.2 µM,> 100 µM,> 100 µM,> 100 µM,> 100 µM,> 100 µM,> 100 µM,–,–,–,–,–,–,–,–,–,–
CC(C)C(=O)NS(=O)(=O)c1ccccc1,> 100 µM,> 100 µM,> 100 µM,> 100 µM,> 100 µM,> 100 µM,> 100 µM,> 100 µM,> 100 µM,> 100 µM,–,–,–,–,–,–,–,–,–,–
N=C(N)c1ccc2nc(-c3cc(CC(=O)N[C@@H](CC(=O)O)C(=O)O)cc(-c4cc(S(N)(=O)=O)ccc4O)c3O)[nH]c2c1,> 100 µM,> 100 µM,> 100 µM,> 100 µM,> 100 µM,> 100 µM,> 100 µM,> 100 µM,> 100 µM,> 100 µM,> 100 µM,> 100 µM,> 100 µM,> 100 µM,> 100 µM,> 100 µM,> 100 µM,> 100 µM,> 100 µM,> 100 µM
c1ccc2nc3c(nc2c1)sc1ccccc13,> 100 µM,51 µM,43.6 µM,> 100 µM,> 100 µM,> 100 µM,30.2 µM,30.9 µM,34.1 µM,> 100 µM,–,–,–,–,–,–,–,–,–,–
CC(C)N(CCn1c2c3ccccc3ccc2c2oc(=O)c3ccccc3c21)C(C)C,> 100 µM,> 100 µM,> 100 µM,> 100 µM,> 100 µM,> 100 µM,> 100 µM,> 74.1 µM,> 100 µM,> 100 µM,–,–,–,–,–,–,–,–,–,–
CC(=O)[O][Ga]([Br])[O]C(C)=O,> 100 µM,> 100 µM,> 100 µM,> 100 µM,> 100 µM,> 100 µM,> 100 µM,> 100 µM,> 100 µM,> 100 µM,> 100 µM,> 100 µM,> 100 µM,> 100 µM,> 100 µM,> 100 µM,> 100 µM,> 100 µM,> 100 µM,> 100 µM
C1=C\COCc2cc(ccc2OCCN2CCCC2)Nc2nccc(n2)-c2cccc(c2)COC/1,1.62 µM,3.85 µM,5.12 µM,4.01 µM,6.07 µM,5.66 µM,4.15 µM,5.71 µM,5.21 µM,4.9 µM,0.306 µM,0.871 µM,1.39 µM,0.722 µM,1.48 µM,2.53 µM,0.971 µM,3.11 µM,2.49 µM,1.33 µM
CCN1CCC(O)(/C=C/c2ccc(C)cc2)C(C(=O)/C=C/c2ccc(C)cc2)C1 (stereo not given),6.84 µM,17.5 µM,16.7 µM,12.4 µM,3.36 µM,25.5 µM,8.1 µM,10.3 µM,9.24 µM,4.59 µM,–,–,–,–,–,–,–,–,–,–
C#COc1cccc(Nc2c(C#N)cnc3ncc(NC(=O)CCl)cc23)c1,> 62.5 µM,> 62.5 µM,> 62.5 µM,> 62.5 µM,> 62.5 µM,> 62.5 µM,> 62.5 µM,37.6 µM,53.6 µM,> 62.5 µM,17.6 µM,17.1 µM,31.9 µM,35.1 µM,19.8 µM,> 62.5 µM,> 62.5 µM,13.9 µM,12.5 µM,4.2 µM
O=C(/C=C/c1ccccc1Cl)NC1C=Nc2ccc([N+](=O)[O-])cc2NC1 (stereo not given),96.2 µM,> 100 µM,> 100 µM,> 100 µM,18.2 µM,> 100 µM,> 100 µM,> 100 µM,> 100 µM,49.3 µM,–,–,–,–,–,–,–,–,–,–
O=Cc1ccc2c(c1-c1c(C=O)ccc3c1OCO3)OCO2,> 100 µM,> 100 µM,> 100 µM,> 100 µM,> 100 µM,> 100 µM,> 100 µM,> 100 µM,> 100 µM,> 100 µM,–,–,–,–,–,–,–,–,–,–
